Test: xn = mol fraction of the nth substance listed
Details: 101 kPa, Liquid; for speed of sound: Sing-around technique in a fixed-path interferometer; for mass density: Vibrating tube method

CCCC[N+]1(C)CCCC1.O=S(=O)([O-])C(F)(F)F [1-butyl-1-methylpyrrolidinium trifluoromethanesulfonate] + O
Details	mass density [kg/m3]	speed of sound [m/s]
278.15 K, x1 = 0.04996	1113.86	1595.9
278.15 K, x1 = 0.1	1163.55	1607.6
278.15 K, x1 = 0.1507	1190.82	1602.9
278.15 K, x1 = 0.1999	1208.34	1594.2
278.15 K, x1 = 0.2996	1229.14	1574.1
278.15 K, x1 = 0.3986	1240.96	1557
278.15 K, x1 = 0.4982	1248.7	1543.7
278.15 K, x1 = 0.5996	1254.27	1533.2
278.15 K, x1 = 0.6993	1258.35	1525.3
278.15 K, x1 = 0.8017	1261.86	1519.6
278.15 K, x1 = 0.8993	1264.45	1514
278.15 K, x1 = 1	1267.23	1513.5
288.15 K, x1 = 0.04996	1108.53	1594.7
288.15 K, x1 = 0.1	1156.83	1596.2
288.15 K, x1 = 0.1507	1183.59	1586
288.15 K, x1 = 0.1999	1200.79	1574.4
288.15 K, x1 = 0.2996	1221.49	1551.6
288.15 K, x1 = 0.3986	1233.35	1533.7
288.15 K, x1 = 0.4982	1241.17	1520
288.15 K, x1 = 0.5996	1246.83	1509.2
288.15 K, x1 = 0.6993	1251.01	1501
288.15 K, x1 = 0.8017	1254.33	1494.5
288.15 K, x1 = 0.8993	1256.9	1488.9
288.15 K, x1 = 1	1259.74	1486.1
298.15 K, x1 = 0.04996	1102.75	1590.4
298.15 K, x1 = 0.1	1149.85	1582.6
298.15 K, x1 = 0.1507	1176.19	1567.8
298.15 K, x1 = 0.1999	1193.14	1553.8
298.15 K, x1 = 0.2996	1213.77	1529
298.15 K, x1 = 0.3986	1225.71	1510.6
298.15 K, x1 = 0.4982	1233.63	1496.6
298.15 K, x1 = 0.5996	1239.37	1485.8
298.15 K, x1 = 0.6993	1243.63	1477.5
298.15 K, x1 = 0.8017	1247.06	1470.7
298.15 K, x1 = 0.8993	1249.64	1465
298.15 K, x1 = 1	1252.26	1461.4
308.15 K, x1 = 0.04996	1096.56	1583
308.15 K, x1 = 0.1	1142.62	1567
308.15 K, x1 = 0.1507	1168.56	1548.5
308.15 K, x1 = 0.1999	1185.37	1532.4
308.15 K, x1 = 0.2996	1206	1506.2
308.15 K, x1 = 0.3986	1218.04	1487.4
308.15 K, x1 = 0.4982	1226.07	1473.4
308.15 K, x1 = 0.5996	1231.92	1462.6
308.15 K, x1 = 0.6993	1236.25	1454.5
308.15 K, x1 = 0.8017	1239.76	1447.4
308.15 K, x1 = 0.8993	1242.39	1442
308.15 K, x1 = 1	1245.09	1437.8
318.15 K, x1 = 0.04996	1089.97	1572.9
318.15 K, x1 = 0.1	1135.15	1549.7
318.15 K, x1 = 0.1507	1160.74	1528
318.15 K, x1 = 0.1999	1177.49	1510.4
318.15 K, x1 = 0.2996	1198.16	1483.1
318.15 K, x1 = 0.3986	1210.34	1464.2
318.15 K, x1 = 0.4982	1218.51	1450.3
318.15 K, x1 = 0.5996	1224.48	1439.7
318.15 K, x1 = 0.6993	1228.9	1431.7
318.15 K, x1 = 0.8017	1232.49	1424.7
318.15 K, x1 = 0.8993	1235.16	1419.4
318.15 K, x1 = 1	1237.94	1414.9
328.15 K, x1 = 0.04996	1083.01	1560.3
328.15 K, x1 = 0.1	1127.45	1530.8
328.15 K, x1 = 0.1507	1152.76	1506.4
328.15 K, x1 = 0.1999	1169.5	1487.7
328.15 K, x1 = 0.2996	1190.27	1459.7
328.15 K, x1 = 0.3986	1202.62	1441
328.15 K, x1 = 0.4982	1210.95	1427.3
328.15 K, x1 = 0.5996	1217.05	1417
328.15 K, x1 = 0.6993	1221.57	1409.2
328.15 K, x1 = 0.8017	1225.24	1402.3
328.15 K, x1 = 0.8993	1227.97	1397.3
328.15 K, x1 = 1	1230.81	1392.7
338.15 K, x1 = 0.04996	1075.72	1545.4
338.15 K, x1 = 0.1	1119.53	1510.5
338.15 K, x1 = 0.1507	1144.53	1484
338.15 K, x1 = 0.1999	1161.26	1464.5
338.15 K, x1 = 0.2996	1182.3	1436.3
338.15 K, x1 = 0.3986	1194.89	1418
338.15 K, x1 = 0.4982	1203.39	1404.5
338.15 K, x1 = 0.5996	1209.64	1394.5
338.15 K, x1 = 0.6993	1214.26	1387
338.15 K, x1 = 0.8017	1218.03	1380.4
338.15 K, x1 = 0.8993	1220.81	1375.5
338.15 K, x1 = 1	1223.73	1371.1

From the NIST ThermoML archive (doi:10.1021/je300134c)
